This is an account of results in patent publication US12502416B1, “PAM3CSK4 injection for the prevention and management of MASLD” (DASMAN DIABETES INSTITUTE, priority 2025, dated 2025).

Format in all cases: in vivo
The subject of assay [1] is C57BL/6 mice on high-fat diet (liver steatosis). Description: Liver section histology (H&E) in high-fat diet mice with liver steatosis. The conditions noted are these: obese HFD mice with steatosis, 10 μg/kg IP every other day for two weeks. The procedure: (§1) In the experiment, 8-10 weeks-old male mice (n−20) were fed a high-fat diet (60% fat). […] These mice were randomly divided into 2 groups. Mice in Group 1(n−10) received injections of 0.9% normal saline (vehicle) every other day for a duration of two weeks. Mice in Group 2 (n−10) received injections of Pam3CSK4 (SEQ ID NO: 1) (drug:10 μg/kg; IP) every other day for a duration of two weeks. Throughout the treatment period, mice were kept on a high-fat diet. A) Liver sections of the mice were stained with H&E. Referring to FIG. 2, fasting blood glucose was reduced in the mice treated with Pam3CSK4 (SEQ ID NO: 1) compared to mice treated with a vehicle. […] By non-limiting example, a vehicle may be saline, a sugar water solution, or other similar substances that may be injected without affecting the subject directly. Data is presented as mean±SD.

The subject of assay [2] is PPAR-γ. Description: Liver PPAR-γ expression by qRT-PCR in high-fat diet mice. The settings on record: HFD mice; 10 μg/kg IP every other day for two weeks; liver total RNA, qRT-PCR (FIG. 3A). The procedure:
(§2) Referring to FIGS. 3A-3B, 8-10 weeks-old male mice (n−20) were fed a high-fat diet (60% fat). […] These mice were randomly divided into 2 groups. Mice in Group 1 (n=10) received injections of 0.9% normal saline (vehicle) every other day for a duration of two weeks. Mice in Group 2 (n=10) received injections of Pam3CSK4 (SEQ ID NO: 1) (drug:10 μg/kg; IP) every other day for a duration of two weeks. Throughout the treatment period, mice were kept on a high-fat diet. Total RNA was extracted from livers and expression of PPAR-γ (FIG. 3A) and CD36 (FIG. 3B) was determined by qRT-PCR. Data presents as mean±SD.

Assay [3] deals with C57BL/6 mice on high-fat diet (impaired glucose homeostasis). Description: Fasting blood glucose in high-fat diet mice. The conditions noted are these: HFD mice; 10 μg/kg IP every other day for two weeks; compared to vehicle (FIG. 2). How it is done:
as §1

Assay [4] concerns CD36. As to the kind of experiment: Liver CD36 expression by qRT-PCR in high-fat diet mice. The conditions noted are these: HFD mice; 10 μg/kg IP every other day for two weeks; liver total RNA, qRT-PCR (FIG. 3B). How it is done:
as §2

Ends that are not written are not given here. * marks the point of attachment. X1 = 2,3‑bis(palmitoyloxy)‑(2RS)‑propyl, CCCCCCCCCCCCCCCC(=O)OCC(C*)OC(=O)CCCCCCCCCCCCCCC; Palmitoyl = CCCCCCCCCCCCCCCC(=O)*

“Pam3CysSerLys4 (Palmitoyl-C(X1)SKKKK) [Pam3CSK4, a synthetic triacylated lipopeptide (LP) and a TLR2/TLR1 ligand]”: the “normal liver without any fat in treated mice” value in assay [1] is listed as 100%. Moreover, in assay [1] (vs vehicle), the hepatic fat accumulation result was “effectively reduces hepatic fat accumulation”. The “PPAR-γ expression in the liver” value in assay [2] is on record as “suppressed”. For the same substance, the “fasting blood glucose (FBG)” value in assay [3] is given as “reduced”. Moreover, the “CD36 expression in the liver” value in assay [4] was “suppressed”.
